From patent publication US10696648B2, “Inhibitors of indoleamine 2,3-dioxygenase and methods of their use” (BRISTOL-MYERS SQUIBB COMPANY, priority 2016, dated 2020)

Target: T1, human IDO1 (Homo sapiens, UniProt P14902)
T1 construct: expressed in transfected cells
Test: HEK293 cells stably expressing human IDO1, IDO inhibition assay (kynurenine, Ehrlich reagent)
Format: cell-based
Details: 20 hours incubation, absorbance at 490 nm, read-out: HEK Human IDO-1 Bio Activity (IDO IC50)
Experimental: HEK293 cells were transfected with a pCDNA-based mammalian expression vector harboring human IDO1 cDNA (NM 002164.2) by electroporation. They were cultured in medium (DMEM with 10% FBS) containing 1 mg/ml G418 for two weeks. Clones of HEK293 cells that stably expressed human IDO1 protein were selected and expanded for IDO inhibition assay. The human IDO1/HEK293 cells were seeded at 10,000 cells per 50 μL per well with RPMI/phenol red free media contains 10% FBS in a 384-well black wall clear bottom tissue culture plate (Matrix Technologies LLC) 100 nL of certain concentration of compound was then added to each well using ECHO liquid handling systems. The cells were incubated for 20 hours in 37° C. incubator with 5% CO2. The compound treatments were stopped by adding trichloroacetic acid (Sigma-Aldrich) to a final concentration at 0.2%. The cell plate was further incubated at 50° C. for 30 minute. The equal volume supernatant (20 μL) and 0.2% (w/v) Ehrlich reagent (4-dimethylaminobenzaldehyde, Sigma-Aldrich) in glacial acetic acid were mixed in a new clear bottom 384-well plate. This plate was then incubated at room temperature for 30 minute. The absorbance at 490 nm was measured on Envision plate reader. Compound IC50 values were calculated using the counts of 500 nM of a reference standard treatment as one hundred percent inhibition, and counts of no compound but DMSO treatment as zero percent inhibition.

T1 sequence (P14902 whole entry): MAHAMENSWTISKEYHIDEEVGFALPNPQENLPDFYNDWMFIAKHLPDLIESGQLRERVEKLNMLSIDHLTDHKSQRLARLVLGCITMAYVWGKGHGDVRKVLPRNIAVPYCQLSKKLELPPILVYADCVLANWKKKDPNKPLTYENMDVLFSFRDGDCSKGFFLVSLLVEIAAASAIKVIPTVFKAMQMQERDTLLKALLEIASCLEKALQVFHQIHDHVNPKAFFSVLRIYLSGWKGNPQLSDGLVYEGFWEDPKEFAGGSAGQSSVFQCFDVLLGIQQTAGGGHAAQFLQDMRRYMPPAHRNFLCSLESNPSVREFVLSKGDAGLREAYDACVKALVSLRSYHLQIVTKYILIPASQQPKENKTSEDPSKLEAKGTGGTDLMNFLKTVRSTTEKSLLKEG

Row | SMILES | IC50 [µM]
1 | COc1ccc(CN(C(=O)Nc2ccc(F)c(F)c2)[C@H]2CC[C@H](c3ccccc3)CC2)cc1 [Example 8, 3-(3,4-difluorophenyl)-1-(4-methoxybenzyl)-1-(trans-4-phenylcyclohexyl)urea] | < 1
2 | CCOc1ccc(NC(=O)N(Cc2ccc(OC)cc2)[C@H]2CC[C@H](c3ccccc3)CC2)cc1 [Example 13, 3-(4-ethoxyphenyl)-1-(4-methoxybenzyl)-1-(trans-4-phenylcyclohexyl)urea] | < 1
3 | O=C(O)Cc1ccc(CN(C(=O)Nc2ccc(Cl)cc2)[C@H]2CC[C@H](c3ccnc4ccc(F)cc43)CC2)cc1 [Example 25, 2-(4-((3-(4-chlorophenyl)-1-(trans-4-(6-fluoroquinolin-4-yl)cyclohexyl)ureido)methyl)phenyl)acetic Acid] | < 1
4 | C[C@H](NC(=O)N(Cc1ccccc1)[C@H]1CC[C@H](c2ccnc3ccc(F)cc32)CC1)c1ccc(Cl)cc1 [Example 39, 1-benzyl-3-((S)-1-(4-chlorophenyl)ethyl)-1-((1r,4S)-4-(6-fluoroquinolin-4-yl)cyclohexyl)urea] | < 10
5 | COc1ccc(CN(C(=O)NC2CCCC2)C2CCC(c3ccccc3)CC2)cc1 (stereo not shown) [Example 44, 3-cyclopentyl-1-(4-methoxybenzyl)-1-((1r,4r)-4-phenylcyclo-hexyl)urea] | < 1
6 | CN(C(=O)Nc1ccc(Cl)cc1)[C@H]1CC[C@@H](c2ccnc3ccc(F)cc32)CC1 [Example 15, 3-(4-chlorophenyl)-1-(cis-4-(6-fluoroquinolin-4-yl)cyclohexyl)-1-methylurea] | < 1
7 | COc1ccc(CN(C(=O)Nc2ccc(F)cc2F)[C@H]2CC[C@H](c3ccccc3)CC2)cc1 [Example 5, 3-(2,4-difluorophenyl)-1-(4-methoxybenzyl)-1-(trans-4-phenylcyclohexyl)urea] | < 1
8 | CN(C(=O)Nc1ccc(OC(F)(F)F)cc1)C1CCN(c2ccnc3ccc(F)cc23)CC1 [Example 3, 1-(1-(6-Fluoroquinolin-4-yl)piperidin-4-yl)-1-methyl-3-(4-(trifluoromethoxy)phenyl)urea] | < 1
9 | C[C@H](NC(=O)N(C)[C@H]1CC[C@H](c2ccnc3ccc(F)cc32)CC1)c1ccc(Cl)cc1 [Example 36, 3-((S)-1-(4-chlorophenyl)ethyl)-1-((1r,4S)-4-(6-fluoroquinolin-4-yl)cyclohexyl)-1-methylurea] | < 1
10 | O=C(O)Cc1ccc(CN(C(=O)Nc2ccc(Cl)cc2)[C@H]2CC[C@@H](c3ccnc4ccc(F)cc43)CC2)cc1 [Example 28, 2-(4-((3-(4-chlorophenyl)-1-(cis-4-(6-fluoroquinolin-4-yl)cyclohexyl)ureido)methyl)phenyl)acetic acid] | < 10
11 | COc1ccc(CN(C(=O)Nc2ccc(OC(F)(F)F)cc2)[C@H]2CC[C@H](c3ccccc3)CC2)cc1 [Example 10, 1-(4-methoxybenzyl)-1-(trans-4-phenylcyclohexyl)-3-(4-(trifluoromethoxy)phenyl)urea] | < 1
12 | COc1ccc(CN(C(=O)NCc2ccc(F)cc2)C2CCC(c3ccccc3)CC2)cc1 (stereo not shown) [Example 32, 3-(4-fluorobenzyl)-1-(4-methoxybenzyl)-1-((1r,4r)-4-phenylcyclohexyl)urea] | < 10
13 | COc1ccc(CN(C(=O)N[C@@H](C)c2ccc(Cl)cc2)[C@H]2CC[C@H](c3ccccc3)CC2)cc1 [Example 31, 3-((S)-1-(4-chlorophenyl)ethyl)-1-(4-methoxybenzyl)-1-((1r,4S)-4-phenylcyclohexyl)urea] | < 1
14 | CCN(C(=O)N[C@@H](C)c1ccc(Cl)cc1)[C@H]1CC[C@H](c2ccnc3ccc(F)cc32)CC1 [Example 37, 3-((S)-1-(4-chlorophenyl)ethyl)-1-ethyl-1-((1r,4S)-4-(6-fluoroquinolin-4-yl)cyclohexyl)urea] | < 1
15 | Cc1ccc(NC(=O)N(Cc2ccccc2)[C@H]2CC[C@H](c3ccnc4ccc(F)cc43)CC2)cc1 [Example 20, 1-benzyl-1-(trans-4-(6-fluoroquinolin-4-yl)cyclohexyl)-3-(p-tolyl)urea] | < 1
16 | COc1ccc(CN(C(=O)Nc2ccc(F)cc2)[C@H]2CC[C@H](c3ccccc3)CC2)cc1 [Example 9, 3-(4-fluorophenyl)-1-(4-methoxybenzyl)-1-(trans-4-phenylcyclohexyl)urea] | < 1
17 | COc1ccc(CN(C(=O)NC2CC2)C2CCC(c3ccccc3)CC2)cc1 (stereo not shown) [Example 45, 3-cyclopropyl-1-(4-methoxybenzyl)-1-((1r,4r)-4-phenylcyclo-hexyl)urea] | < 1
18 | CN(C(=O)Nc1ccc(Cl)cc1)C1CCN(c2ccnc3ccc(F)cc23)CC1 [Example 1, 3-(4-Chlorophenyl)-1-(1-(6-fluoroquinolin-4-yl)piperidin-4-yl)-1-methylurea] | < 1
19 | C[C@@H](NC(=O)N(Cc1ccccc1)[C@H]1CC[C@H](c2ccnc3ccc(F)cc32)CC1)c1ccc(F)cc1 [Example 40, 1-benzyl-3-((R)-1-(4-fluorophenyl)ethyl)-1-((1r,4R)-4-(6-fluoroquinolin-4-yl)cyclohexyl)urea] | < 1
20 | O=C(Nc1ccc(Cl)cc1)N(Cc1ccccc1)[C@H]1CC[C@@H](c2ccnc3ccc(F)cc32)CC1 [Example 23, 1-benzyl-3-(4-chlorophenyl)-1-(cis-4-(6-fluoroquinolin-4-yl)cyclohexyl)urea] | < 1
21 | O=C(Nc1ccc(Cl)cc1)N(Cc1ccccc1)[C@H]1CC[C@H](c2ccnc3ccc(F)cc32)CC1 [Example 18, 1-benzyl-3-(4-chlorophenyl)-1-(trans-4-(6-fluoroquinolin-4-yl)cyclohexyl)urea] | < 0.1
22 | O=C(Nc1ccc(Cl)cc1F)N(Cc1ccccc1)[C@H]1CC[C@H](c2ccnc3ccc(F)cc32)CC1 [Example 21, 1-benzyl-3-(4-chloro-2-fluorophenyl)-1-(trans-4-(6-fluoroquinolin-4-yl)cyclohexyl)urea] | < 1

Further lines, results first:

Row | IC50 [µM] | SMILES
23 | < 0.1 | CN(C(=O)Nc1ccc(Cl)cc1)[C@H]1CC[C@H](c2ccnc3ccc(F)cc32)CC1 [Example 14, 3-(4-Chlorophenyl)-1-(trans-4-(6-fluoroquinolin-4-yl)cyclohexyl)-1-methylurea]
24 | < 0.1 | O=C(O)Cc1ccc(CN(C(=O)Nc2ccc(Cl)cc2F)[C@H]2CC[C@H](c3ccnc4ccc(F)cc43)CC2)cc1 [Example 26, 2-(4-((3-(4-chloro-2-fluorophenyl)-1-(trans-4-(6-fluoroquinolin-4-yl)cyclohexyl)ureido)methyl)phenyl) acetic acid]
25 | < 0.1 | CCCCc1ccc(NC(=O)N(C)C2CCN(c3ccnc4ccc(F)cc34)CC2)cc1 [Example 2, 3-(4-Butylphenyl)-1-(1-(6-fluoroquinolin-4-yl)piperidin-4-yl)-1-methylurea]
26 | < 0.1 | CCN(C(=O)Nc1ccc(Cl)cc1)[C@H]1CC[C@H](c2ccnc3ccc(F)cc32)CC1 [Example 16, 3-(4-Chlorophenyl)-1-ethyl-1-(trans-4-(6-fluoroquinolin-4-yl)cyclohexyl)urea]
27 | < 0.1 | COc1ccc(CN(C(=O)Nc2ccc(Cl)cc2)[C@H]2CC[C@H](c3ccccc3)CC2)cc1 [Example 4, 3-(4-Chlorophenyl)-1-(4-methoxybenzyl)-1-((1r,4r)-4-phenylcyclohexyl)urea]
28 | < 0.1 | COc1ccc(CN(C(=O)NC2CCCCC2)[C@H]2CC[C@H](c3ccccc3)CC2)cc1 [Example 43, 3-cyclohexyl-1-(4-methoxybenzyl)-1-((1r,4r)-4-phenylcyclohexyl)urea]
29 | < 0.1 | C[C@@H](NC(=O)N(Cc1ccc(CC(=O)O)cc1)[C@H]1CC[C@H](c2ccnc3ccc(F)cc32)CC1)c1ccc(F)cc1 [Example 41, 2-(4-((3-((R)-1-(4-fluorophenyl)ethyl)-1-((1 r,4R)-4-(6-fluoroquinolin-4-yl)cyclohexyl)ureido)methyl)phenyl)acetic Acid]
30 | < 0.1 | O=C(Nc1ccc(F)cc1)N(Cc1ccccc1)[C@H]1CC[C@H](c2ccnc3ccc(F)cc32)CC1 [Example 19, 1-benzyl-3-(4-fluorophenyl)-1-(trans-4-(6-fluoroquinolin-4-yl)cyclohexyl)urea]
31 | < 0.1 | COc1ccc(CN(C(=O)N[C@H](C)c2ccc(F)cc2)C2CCC(c3ccccc3)CC2)cc1 (stereo partly drawn) [Example 33, 3-((R)-1-(4-fluorophenyl)ethyl)-1-(4-methoxybenzyl)-1-((1r,4R)-4-phenylcyclohexyl)urea]
32 | < 0.1 | O=C(Nc1ccc(Cl)cc1F)N(Cc1ccccc1)[C@H]1CC[C@@H](c2ccnc3ccc(F)cc32)CC1 [Example 24, 1-benzyl-3-(4-chloro-2-fluorophenyl)-1-(cis-4-(6-fluoroquinolin-4-yl)cyclohexyl)urea]
33 | < 0.1 | COc1ccc(CN(C(=O)Nc2ccc(C(F)(F)F)cc2)[C@H]2CC[C@H](c3ccccc3)CC2)cc1 [Example 12, 1-(4-methoxybenzyl)-1-(trans-4-phenylcyclohexyl)-3-(4-(trifluoromethyl)phenyl)urea]
34 | < 0.1 | O=C(O)Cc1ccc(CN(C(=O)Nc2ccccc2)[C@H]2CC[C@H](c3ccnc4ccc(F)cc43)CC2)cc1 [Example 27, 2-(4-((1-(trans-4-(6-fluoroquinolin-4-yl)cyclohexyl)-3-phenylureido)methyl)phenyl)acetic acid]
